Laboratory results published in patent US10604554B2, “Double-acylated GLP-1 derivatives” (Novo Nordisk A/S, priority 2012, dated 2020).
Where two headings read alike, the source gives them in different places. Numbered stars: 1 amine (or outer) side, 2 acyl side, 3 side chain; on linkers, the order of the positions; unused ones are H or OH. Square brackets hold non-standard residues; d marks the D form. Side chains are listed from the residue outwards. Peptide text beside a SMILES is read from it. * marks the point of attachment. C18 diacid = O=C(O)CCCCCCCCCCCCCCCCC(=O)*; γGlu = O=C(O)[C@H](CCC(=O)[*:2])N[*:1]; εLys = N[C@@H](CCCCN[*:1])C(=O)[*:2]; AEEA = NCCOCCOCC(=O)O; Aib = CC(C)(N)C(=O)O

Molecular target: T1, human GLP-1 receptor (Homo sapiens, UniProt P43220)
T1 construct: expressed in transfected cells; host or cells: BHK cells, clone FCW467-12A/KZ10-1 (parent line BHKTS13), further transfected with CRE luciferase
T1 sequence (P43220 24-463): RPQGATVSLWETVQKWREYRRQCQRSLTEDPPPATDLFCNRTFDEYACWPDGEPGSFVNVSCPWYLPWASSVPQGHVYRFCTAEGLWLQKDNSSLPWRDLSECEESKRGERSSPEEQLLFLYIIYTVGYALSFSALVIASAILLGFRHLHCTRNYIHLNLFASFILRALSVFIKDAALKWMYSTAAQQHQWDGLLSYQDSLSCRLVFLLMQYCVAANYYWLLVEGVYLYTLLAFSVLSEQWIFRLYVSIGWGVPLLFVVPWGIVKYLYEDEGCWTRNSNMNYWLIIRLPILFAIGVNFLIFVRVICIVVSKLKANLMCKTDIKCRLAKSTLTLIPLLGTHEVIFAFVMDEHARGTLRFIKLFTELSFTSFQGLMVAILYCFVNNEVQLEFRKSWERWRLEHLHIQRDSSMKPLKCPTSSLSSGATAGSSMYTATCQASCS
Assay: In vitro potency (AlphaScreen cAMP, membranes)
Type: biochemical
In short: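 AlphaScreen competition read-out (anti-cAMP acceptor beads vs biotinylated cAMP, 3 h room temperature) quantified cAMP made by human GLP-1 receptor membranes, 6 μg/well, from stably transfected BHK467-12A cells. Buffer pH 7.4 contained 1 mM ATP, 1 μM GTP, 0.5 mM IBMX and 0.1% BSA; cAMP standard curve included.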

[1] = cAMP formation in membranes from BHK467-12A cells expressing human GLP-1 receptor, read-out: In vitro potency (AlphaScreen) EC50

| EC50 [1] [nM] | Compound | EC50 [nM] |
| --- | --- | --- |
| 0.057 | CC[C@H](C)[C@H](NC(=O)[C@H](Cc1ccccc1)NC(=O)[C@H](CCC(=O)O)NC(=O)[C@H](CCCCNC(=O)[C@@H](N)CCCCNC(=O)COCCOCCNC(=O)COCCOCCNC(=O)CC[C@H](NC(=O)CCCCCCCCCCCCC(=O)O)C(=O)O)NC(=O)[C@H](C)NC(=O)[C@H](C)NC(=O)[C@H](CCC(N)=O)NC(=O)CNC(=O)[C@H](CCC(=O)O)NC(=O)[C@H](CC(C)C)NC(=O)[C@H](Cc1ccc(O)cc1)NC(=O)[C@H](CO)NC(=O)[C@H](CO)NC(=O)[C@@H](NC(=O)[C@H](CC(=O)O)NC(=O)[C@H](CO)NC(=O)[C@@H](NC(=O)[C@H](Cc1ccccc1)NC(=O)[C@@H](NC(=O)CNC(=O)[C@H](CCC(=O)O)NC(=O)C(C)(C)NC(=O)[C@@H](N)Cc1c[nH]cn1)[C@@H](C)O)[C@@H](C)O)C(C)C)C(=O)N[C@@H](C)C(=O)N[C@@H](Cc1c[nH]c2ccccc12)C(=O)N[C@@H](CC(C)C)C(=O)N[C@H](C(=O)N[C@@H](CCCNC(=N)N)C(=O)NCC(=O)N[C@@H](CCCNC(=N)N)C(=O)N[C@@H](CCCCNC(=O)[C@@H](N)CCCCNC(=O)COCCOCCNC(=O)COCCOCCNC(=O)CC[C@H](NC(=O)CCCCCCCCCCCCC(=O)O)C(=O)O)C(=O)O)C(C)C [Example 19, N^ε26-[(2S)-2-amino-6-[[2-[2-[2-[[2-[2-[2-[[(4S)-4-carboxy-4-(13-carboxytridecanoylamino)butanoyl]amino]ethoxy]ethoxy]acetyl]amino]ethoxy]ethoxy]acetyl]amino]hexanoyl], N^ε37-[(2S)-2-amino-6-[[2-[2-[2-[[2-[2-[2-[[(4S)-4-carboxy-4-(13-carboxytridecanoylamino)butanoyl]amino]ethoxy]ethoxy]acetyl]amino]ethoxy]ethoxy]acetyl]amino]hexanoyl]-[Aib^8,Arg^34,Lys^37]-GLP-1-(7-37)-peptide] |  |
| 3.69 | CC[C@H](C)[C@H](NC(=O)[C@H](Cc1ccccc1)NC(=O)[C@H](CCC(=O)O)NC(=O)[C@H](CCCCNC(=O)[C@@H](N)CCCCNC(=O)[C@@H](N)CCCCNC(=O)CC[C@H](NC(=O)CCCCCCCCCCCCCCCCC(=O)O)C(=O)O)NC(=O)[C@H](C)NC(=O)[C@H](C)NC(=O)[C@H](CCC(N)=O)NC(=O)CNC(=O)[C@H](CCC(=O)O)NC(=O)[C@H](CC(C)C)NC(=O)[C@H](Cc1ccc(O)cc1)NC(=O)[C@H](CO)NC(=O)[C@H](CO)NC(=O)[C@@H](NC(=O)[C@H](CC(=O)O)NC(=O)[C@H](CO)NC(=O)[C@@H](NC(=O)[C@H](Cc1ccccc1)NC(=O)[C@@H](NC(=O)CNC(=O)[C@H](CCC(=O)O)NC(=O)C(C)(C)NC(=O)[C@@H](N)Cc1c[nH]cn1)[C@@H](C)O)[C@@H](C)O)C(C)C)C(=O)N[C@@H](C)C(=O)N[C@@H](Cc1c[nH]c2ccccc12)C(=O)N[C@@H](CC(C)C)C(=O)N[C@H](C(=O)N[C@@H](CCCNC(=N)N)C(=O)NCC(=O)N[C@@H](CCCNC(=N)N)C(=O)N[C@@H](CCCCNC(=O)[C@@H](N)CCCCNC(=O)[C@@H](N)CCCCNC(=O)CC[C@H](NC(=O)CCCCCCCCCCCCCCCCC(=O)O)C(=O)O)C(=O)O)C(C)C [Example 27, N^ε26-[(2S)-2-amino-6-[[(2S)-2-amino-6-[[(4S)-4-carboxy-4-(17-carboxyheptadecanoylamino)butanoyl]amino]hexanoyl]amino]hexanoyl], N^ε37-[(2S)-2-amino-6-[[(2S)-2-amino-6-[[(4S)-4-carboxy-4-(17-carboxyheptadecanoylamino)butanoyl]amino]hexanoyl]amino]hexanoyl]-[Aib^8,Arg^34,Lys^37]-GLP-1-(7-37)-peptide] |  |

Continued, molecule first:

| Compound | EC50 [1] [nM] | EC50 [nM] |
| --- | --- | --- |
| CC[C@H](C)[C@H](NC(=O)[C@H](Cc1ccccc1)NC(=O)[C@H](CCC(=O)O)NC(=O)[C@H](CCCCNC(=O)[C@@H](N)CCCCNC(=O)[C@@H](N)CCCCNC(=O)CC[C@H](NC(=O)CCCCCCCCCCOc1ccc(C(=O)O)cc1)C(=O)O)NC(=O)[C@H](C)NC(=O)[C@H](C)NC(=O)[C@H](CCC(N)=O)NC(=O)CNC(=O)[C@H](CCC(=O)O)NC(=O)[C@H](CC(C)C)NC(=O)[C@H](Cc1ccc(O)cc1)NC(=O)[C@H](CO)NC(=O)[C@H](CO)NC(=O)[C@@H](NC(=O)[C@H](CC(=O)O)NC(=O)[C@H](CO)NC(=O)[C@@H](NC(=O)[C@H](Cc1ccccc1)NC(=O)[C@@H](NC(=O)CNC(=O)[C@H](CCC(=O)O)NC(=O)C(C)(C)NC(=O)[C@@H](N)Cc1c[nH]cn1)[C@@H](C)O)[C@@H](C)O)C(C)C)C(=O)N[C@@H](C)C(=O)N[C@@H](Cc1c[nH]c2ccccc12)C(=O)N[C@@H](CC(C)C)C(=O)N[C@H](C(=O)N[C@@H](CCCNC(=N)N)C(=O)NCC(=O)N[C@@H](CCCNC(=N)N)C(=O)N[C@@H](CCCCNC(=O)[C@@H](N)CCCCNC(=O)[C@@H](N)CCCCNC(=O)CC[C@H](NC(=O)CCCCCCCCCCOc1ccc(C(=O)O)cc1)C(=O)O)C(=O)O)C(C)C [Example 20, N^ε26-[(2S)-2-amino-6-[[(2S)-2-amino-6-[[(4S)-4-carboxy-4-[11-(4-carboxyphenoxy)undecanoylamino]butanoyl]amino]hexanoyl]amino]hexanoyl], N^ε37-[(2S)-2-amino-6-[[(2S)-2-amino-6-[[(4S)-4-carboxy-4-[11-(4-carboxyphenoxy)undecanoylamino]butanoyl]amino]hexanoyl]amino]hexanoyl]-[Aib^8,Arg^34,Lys^37]-GLP-1-(7-37)-peptide] |  | 0.071 |
| CC[C@H](C)[C@H](NC(=O)[C@H](Cc1ccccc1)NC(=O)[C@H](CCC(=O)O)NC(=O)[C@H](CCCCNC(=O)[C@@H](N)CCCCNC(=O)[C@@H](N)CCCCNC(=O)CC[C@H](NC(=O)CCCCCCCNC(=O)CCCCCCCCCOc1ccc(C(=O)O)cc1)C(=O)O)NC(=O)[C@H](C)NC(=O)[C@H](C)NC(=O)[C@H](CCC(N)=O)NC(=O)CNC(=O)[C@H](CCC(=O)O)NC(=O)[C@H](CC(C)C)NC(=O)[C@H](Cc1ccc(O)cc1)NC(=O)[C@H](CO)NC(=O)[C@H](CO)NC(=O)[C@@H](NC(=O)[C@H](CC(=O)O)NC(=O)[C@H](CO)NC(=O)[C@@H](NC(=O)[C@H](Cc1ccccc1)NC(=O)[C@@H](NC(=O)CNC(=O)[C@H](CCC(=O)O)NC(=O)C(C)(C)NC(=O)[C@@H](N)Cc1c[nH]cn1)[C@@H](C)O)[C@@H](C)O)C(C)C)C(=O)N[C@@H](C)C(=O)N[C@@H](Cc1c[nH]c2ccccc12)C(=O)N[C@@H](CC(C)C)C(=O)N[C@H](C(=O)N[C@@H](CCCNC(=N)N)C(=O)NCC(=O)N[C@@H](CCCNC(=N)N)C(=O)N[C@@H](CCCCNC(=O)[C@@H](N)CCCCNC(=O)[C@@H](N)CCCCNC(=O)CC[C@H](NC(=O)CCCCCCCNC(=O)CCCCCCCCCOc1ccc(C(=O)O)cc1)C(=O)O)C(=O)O)C(C)C [Example 26, N^ε26-[(2S)-2-amino-6-[[(2S)-2-amino-6-[[(4S)-4-carboxy-4-[8-[10-(4-carboxyphenoxy)decanoylamino]octanoylamino]butanoyl]amino]hexanoyl]amino]hexanoyl], N^ε37-[(2S)-2-amino-6-[[(2S)-2-amino-6-[[(4S)-4-carboxy-4-[8-[10-(4-carboxyphenoxy)decanoylamino]octanoylamino]butanoyl]amino]hexanoyl]amino]hexanoyl]-[Aib^8,Arg^34,Lys^37]-GLP-1-(7-37)-peptide] |  | 0.135 |
| CC[C@H](C)[C@H](NC(=O)[C@H](Cc1ccccc1)NC(=O)[C@H](CCC(=O)O)NC(=O)[C@H](CCCCNC(=O)[C@@H](N)CCCCNC(=O)COCCOCCNC(=O)COCCOCCNC(=O)CC[C@H](NC(=O)CCCCCCCCCCCCCCCCC(=O)O)C(=O)O)NC(=O)[C@H](C)NC(=O)[C@H](C)NC(=O)[C@H](CCC(N)=O)NC(=O)[C@H](CCC(=O)O)NC(=O)[C@H](CCC(=O)O)NC(=O)[C@H](CC(C)C)NC(=O)[C@H](Cc1ccc(O)cc1)NC(=O)[C@H](CO)NC(=O)[C@H](CO)NC(=O)[C@@H](NC(=O)[C@H](CC(=O)O)NC(=O)[C@H](CO)NC(=O)[C@@H](NC(=O)[C@H](Cc1ccccc1)NC(=O)[C@@H](NC(=O)CNC(=O)[C@H](CCC(=O)O)NC(=O)C(C)(C)NC(=O)[C@@H](N)Cc1c[nH]cn1)[C@@H](C)O)[C@@H](C)O)C(C)C)C(=O)N[C@@H](C)C(=O)N[C@@H](Cc1c[nH]c2ccccc12)C(=O)N[C@@H](CC(C)C)C(=O)N[C@H](C(=O)N[C@@H](CCC(N)=O)C(=O)NCC(=O)N[C@@H](CCCNC(=N)N)C(=O)N[C@@H](CCCCNC(=O)[C@@H](N)CCCCNC(=O)COCCOCCNC(=O)COCCOCCNC(=O)CC[C@H](NC(=O)CCCCCCCCCCCCCCCCC(=O)O)C(=O)O)C(=O)O)C(C)C [Example 28, N^ε26-[(2S)-2-amino-6-[[2-[2-[2-[[2-[2-[2-[[(4S)-4-carboxy-4-(17-carboxyheptadecanoylamino)butanoyl]amino]ethoxy]ethoxy]acetyl]amino]ethoxy]ethoxy]acetyl]amino]hexanoyl], N^ε37-[(2S)-2-amino-6-[[2-[2-[2-[[2-[2-[2-[[(4S)-4-carboxy-4-(17-carboxyheptadecanoylamino)butanoyl]amino]ethoxy]ethoxy]acetyl]amino]ethoxy]ethoxy]acetyl]amino]hexanoyl]-[Aib^8,Glu^22,Gln^34, Lys^37]-GLP-1-(7-37)-peptide] (H-H[Aib]EGTFTSDVSSYLEEQAAK([εLys-AEEA-AEEA-γGlu-C18 diacid])EFIAWLVQGRK([εLys-AEEA-AEEA-γGlu-C18 diacid])-OH; N-terminus and C-terminus assumed) | 7.25 |  |
